Laboratory results taken from ChEMBL document CHEMBL4513144, “CO-ADD screening of University of Central Lancashire (UK) compounds”.
In brackets after ≈: the same amount, converted by molar mass.

Key:
[1] = test system: HEK293; assay: cells; format: functional; settings: Homo sapiens, ATCC CRL1573, HEK293; ASSAY_TEST Inhibition of Cell Viability; detection method Resazurin; Fluorescence (ex560/em590); MEDIA DMEM with 10% FBS; plate type 384well; TC; CORNING #3712; time 18 hr
[2] = test system: Pseudomonas aeruginosa; assay: microbe, parasite or virus in culture; settings: ATCC 27853, 18 h, ASSAY_TEST Inhibition of Bacterial Growth, detection method Absorption (OD600), MEDIA CAMHB, plate type 384well, NBS, CORNING #3640
Description: Antibacterial activity against Pseudomonas aeruginosa ATCC 27853 (CO-ADD:GN_042); MIC in CAMBH media using NBS plates, by OD(600)

[3] = test system: Staphylococcus aureus; assay: microbe, parasite or virus in culture; settings: ATCC 43300, 18 h, ASSAY_TEST Inhibition of Bacterial Growth, detection method Absorption (OD600), MEDIA CAMHB, plate type 384well, NBS, CORNING #3640
Description: Antibacterial activity against Staphylococcus aureus MRSA ATCC 43300 (CO-ADD:GP_020); MIC in CAMBH media, using NBS plates, by OD(600)

[4] = test system: Escherichia coli; assay: microbe, parasite or virus in culture; settings: ATCC 25922, 18 h, ASSAY_TEST Inhibition of Bacterial Growth, detection method Absorption (OD600), MEDIA CAMHB, plate type 384well, NBS, CORNING #3640
Description: Antibacterial activity against Escherichia coli ATCC 25922 (CO-ADD:GN_001); MIC in CAMBH media using NBS plates, by OD(600)

[5] = test system: Klebsiella pneumoniae; assay: microbe, parasite or virus in culture; settings: ATCC 700603, 18 h, ASSAY_TEST Inhibition of Bacterial Growth, detection method Absorption (OD600), MEDIA CAMHB, plate type 384well, NBS, CORNING #3640
Description: Antibacterial activity against Klebsiella pneumoniae MDR ATCC 70063 (CO-ADD:GN_003); MIC in CAMBH media using NBS plates, by OD(600)

[6] = test system: Candida albicans; assay: microbe, parasite or virus in culture; settings: ATCC 90028, ASSAY_TEST Inhibition of Fungal Growth, detection method Absorption (OD530), plate type 384well, NBS, CORNING #3640
Description: Antifungal activity against Candida albicans ATCC 90028 (CO-ADD:FG_001); MIC in YNB media using NBS plates, by OD630

[7] = test system: Acinetobacter baumannii; assay: microbe, parasite or virus in culture; settings: ATCC 19606, 18 h, ASSAY_TEST Inhibition of Bacterial Growth, detection method Absorption (OD600), MEDIA CAMHB, plate type 384well, NBS, CORNING #3640
Description: Antibacterial activity against Acinetobacter baumannii ATCC 19606 (CO-ADD:GN_034); MIC in CAMBH media using NBS plates, by OD600

[8] = test system: Cryptococcus neoformans
Description: Antifungal activity against Cryptococcus neoformans H99 ATCC 208821 (CO-ADD:FG_002); MIC in YNB media using NBS plates, by Resazurin OD(600-570)

Oc1ccccc1-c1cc2ccccc2[nH]1 [2-(2'-HYDROXYPHENYL)-1H-INDOLE]
CC50 [1]: 0.256 µg/mL (≈ 1.22 µM)
MIC [2]: > 32 µg/mL
MIC [3]: > 32 µg/mL
MIC [4]: > 32 µg/mL
MIC [5]: > 32 µg/mL
MIC [6]: > 32 µg/mL
MIC [7]: > 32 µg/mL
MIC [8]: > 32 µg/mL
